Legend:
[1] = Compound was evaluated for its pharmacokinetic parameter maximum plasma concentration (Cmax) after oral administration to rats; assay type: ADME, organism-based; set-up: route oral; details: rat
Serine protease 1 = molecular target: T1, Serine protease 1 (Bos taurus, UniProt P00760); experiment: Binding affinity against bovine trypsin
T1 sequence (P00760 whole entry): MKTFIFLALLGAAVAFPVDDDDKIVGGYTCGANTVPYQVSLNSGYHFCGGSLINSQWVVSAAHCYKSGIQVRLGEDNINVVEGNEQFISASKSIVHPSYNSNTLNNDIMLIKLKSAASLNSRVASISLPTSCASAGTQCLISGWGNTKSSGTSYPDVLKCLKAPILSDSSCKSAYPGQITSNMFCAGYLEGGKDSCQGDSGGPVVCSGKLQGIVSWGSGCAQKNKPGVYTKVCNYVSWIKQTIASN

Prothrombin = Prothrombin (Homo sapiens, UniProt P00734); experiment: Binding affinity against human thrombin
[2] = Compound was evaluated for its pharmacokinetic parameter maximum area under curve AUCmax; assay type: ADME, organism-based; set-up: time AUCmax; details: rat, in vivo
Rattus norvegicus [3] = experiment: Compound was evaluated for its ability to inhibit thrombus formation in rat model of venous thrombosis at a dose 0.5 mg/kg; details: read-out: Inhibition
Rattus norvegicus [4] = experiment: Compound was evaluated for its ability to inhibit thrombus formation in rat model of venous thrombosis at a dose 1 mg/kg; details: read-out: Inhibition
Coagulation factor X [5] = molecular target: T2, Coagulation factor X (Homo sapiens, UniProt P00742); experiment: Binding affinity for human Coagulation factor Xa; Inactive
T2 sequence (P00742 41-179 limits assumed): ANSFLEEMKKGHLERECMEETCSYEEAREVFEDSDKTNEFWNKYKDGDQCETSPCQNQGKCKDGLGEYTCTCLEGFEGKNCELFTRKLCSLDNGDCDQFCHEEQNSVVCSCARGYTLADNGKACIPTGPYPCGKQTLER
T2 sequence (P00742 235-488 limits assumed): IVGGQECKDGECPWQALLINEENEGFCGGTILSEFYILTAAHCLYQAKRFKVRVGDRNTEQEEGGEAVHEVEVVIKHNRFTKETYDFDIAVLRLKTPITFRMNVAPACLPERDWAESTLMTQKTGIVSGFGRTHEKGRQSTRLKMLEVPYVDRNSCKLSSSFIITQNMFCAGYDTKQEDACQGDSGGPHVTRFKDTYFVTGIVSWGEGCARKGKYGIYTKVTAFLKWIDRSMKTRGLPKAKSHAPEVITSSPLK

Coagulation factor X [6] = molecular target: T2, Coagulation factor X; experiment: Compound was evaluated for the binding affinity against human Coagulation factor Xa
Rattus norvegicus [7] = experiment: Compound at a dose 5 mg/kg was administered intravenously and evaluated for its ability to inhibit thrombus formation in rat model of venous thrombosis; value ranges from 30-67%; assay type: functional; details: route intravenous
Rattus norvegicus [8] = experiment: Compound (dose 5 mg/kg) was administered intravenously and evaluated for its ability to inhibit thrombus formation in rat model of venous thrombosis; value ranges from 30-67%; assay type: functional; details: route intravenous
Rattus norvegicus [9] = experiment: Compound at a dose 1 mg/kg was administered intravenously and evaluated for its ability to inhibit thrombus formation in rat model of venous thrombosis; assay type: functional; details: route intravenous
Rattus norvegicus [10] = organism: Rattus norvegicus; experiment: animal or person; details: iv, read-out: Inhibition

Row | Ki (Serine protease 1) [nM] | Ki (Prothrombin) [nM] | Ki (Coagulation factor X [5]) | SMILES | Cmax [1] [µg/mL] | AUC [2] [µg·h/mL] | other results
1 |  | 105 | Not Active | CC(=O)N[C@@H](C(=O)N1CCC[C@H]1C(=O)NCc1ccc(C(=N)NN)s1)C(c1ccccc1)c1ccccc1 |  |  | 
2 | 1100 | 31 | Not Active | N=C(NN)c1ccc(CNC(=O)[C@@H]2CCCN2C(=O)[C@H](NCC(=O)O)C(c2ccccc2)c2ccccc2)s1 |  |  | 
3 | 85 |  | Not Active | CS(=O)(=O)N[C@@H](C(=O)N1CCC[C@H]1C(=O)NCc1ccc(CN)s1)C(c1ccccc1)c1ccccc1 |  |  | inhibition in vivo at 5 mg/kg (Rattus norvegicus [7]): 30%
4 | 68 | 2.4 | Not Active | CS(=O)(=O)N[C@@H](C(=O)N1CCC[C@H]1C(=O)NCc1cc(CN)cs1)C(c1ccccc1)c1ccccc1 |  |  | inhibition in vivo at 5 mg/kg (Rattus norvegicus [8]): 30%
5 | 0.7 | 0.003 |  | CS(=O)(=O)N[C@@H](C(=O)N1CCC[C@H]1C(=O)NCc1ccc(C(=N)N)cc1)C(c1ccccc1)c1ccccc1 | 2.7 | 263 | Ki (Coagulation factor X [6]): 300 nM; inhibition in vivo at 1 mg/kg (Rattus norvegicus [9]): 70%
6 |  |  | Not Active | CC(C)(C)OC(=O)N[C@@H](C(=O)N1CCC[C@H]1C(=O)NCc1ccc(C(=N)NN)s1)C(c1ccccc1)c1ccccc1 |  |  | 
7 | 250 | 2.2 |  | CS(=O)(=O)N[C@@H](C(=O)N1CCC[C@H]1C(=O)NCc1cc(C(N)=NN)cs1)C(c1ccccc1)c1ccccc1 |  |  | Ki (Coagulation factor X [6]): 59000 nM
8 | 11 | 12 | Not Active | CS(=O)(=O)N[C@@H](C(=O)N1CCC[C@H]1C(=O)NCc1ccc(CN)c(N)c1)C(c1ccccc1)c1ccccc1 |  |  | 
9 | 9.9 | 0.5 |  | CS(=O)(=O)N[C@@H](C(=O)N1CCC[C@H]1C(=O)NCc1ccc(C(=N)N)cc1)C1CCCCC1 |  |  | Ki (Coagulation factor X [6]): 5000 nM
10 | 24000 |  |  | COC(=O)N[C@@H](C(=O)N1CCC[C@H]1C(=O)NCC#Cc1c[nH]cn1)C(c1ccccc1)c1ccccc1 |  |  | 
11 | 110 | 32 | Not Active | Cc1cc(CNC(=O)[C@@H]2CCCN2C(=O)[C@H](NS(C)(=O)=O)C(c2ccccc2)c2ccccc2)ccc1CN |  |  | 
12 | 540 | 1.8 | Not Active | CS(=O)(=O)N[C@@H](C(=O)N1CCC[C@H]1C(=O)NCc1csc(C(=N)NN)c1)C(c1ccccc1)c1ccccc1 |  |  | 
13 | 220 | 6 | Not Active | CS(=O)(=O)N[C@@H](C(=O)N1CCC[C@H]1C(=O)NCc1ccc(CN)nc1)C(c1ccccc1)c1ccccc1 |  |  | inhibition in vivo at 5 mg/kg (Rattus norvegicus [10]): 30%
14 | 12 |  |  | CS(=O)(=O)N[C@@H](C(=O)N1CCC[C@H]1C(=O)NCc1ccc(/C(N)=N/N)s1)C(c1ccccc1)c1ccccc1 |  |  | Ki (Coagulation factor X [6]): 193 nM
15 | 9.9 | 4 | Not Active | CS(=O)(=O)N[C@@H](C(=O)N1CCC[C@H]1C(=O)NCc1ccc(CN)cc1)C(c1ccccc1)c1ccccc1 |  |  | inhibition in vivo at 5 mg/kg (Rattus norvegicus [10]): 30%
16 | 0.6 | 0.005 |  | CS(=O)(=O)N[C@@H](C(=O)N1CCC[C@H]1C(=O)NCc1ccc(C(=N)N)s1)C(c1ccccc1)c1ccccc1 |  |  | Ki (Coagulation factor X [6]): 360 nM
17 | 606 |  |  | CS(=O)(=O)N[C@@H](C(=O)N1CCC[C@H]1C(=O)NCc1csc(CN)c1)C(c1ccccc1)c1ccccc1 |  |  | Ki (Coagulation factor X [6]): 100000 nM; inhibition in vivo at 5 mg/kg (Rattus norvegicus [10]): 30%
18 | 150 | 47 | Not Active | CS(=O)(=O)N[C@@H](C(=O)N1CCC[C@H]1C(=O)NCc1ccc(C(=N)NN)cc1)C(c1ccccc1)c1ccccc1 |  |  | 

Row | SMILES | Ki (Serine protease 1) [nM] | Ki (Prothrombin) [nM] | Ki (Coagulation factor X [5]) | Cmax [1] [µg/mL] | AUC [2] [µg·h/mL] | other results
19 | N=C(N)c1ccc(CNC(=O)[C@@H]2CCCN2C(=O)[C@H](NS(=O)(=O)NC2CCCCC2)C(c2ccccc2)c2ccccc2)cc1.O=C(O)C(F)(F)F | 0.25 | 0.003 |  | < 0.3 |  | 
20 | N=C(N)c1ccc(CNC(=O)[C@@H]2CCCN2C(=O)[C@H](NS(=O)(=O)Cc2ccccc2)C(c2ccccc2)c2ccccc2)cc1.O=C(O)C(F)(F)F | 0.58 | 0.005 |  | 0.9 | 68 | 
21 | N=C(N)c1ccc(CNC(=O)[C@@H]2CCCN2C(=O)[C@H](NS(N)(=O)=O)C(c2ccccc2)c2ccccc2)cc1.O=C(O)C(F)(F)F | 0.3 | 0.003 |  | 2.8 | 272 | inhibition in vivo at 0.5 mg/kg (Rattus norvegicus [3]): 80%; inhibition in vivo at 1 mg/kg (Rattus norvegicus [4]): 100%
22 | N=C(N)c1ccc(CNC(=O)[C@@H]2CCCN2C(=O)[C@H](NCC(=O)O)C(c2ccccc2)c2ccccc2)cc1.O=C(O)C(F)(F)F | 3 | 0.015 |  | 1.3 | 120 | 
23 | N=C(N)c1ccc(CNC(=O)[C@@H]2CCCN2C(=O)[C@H](Nc2ccccc2)C(c2ccccc2)c2ccccc2)cc1.O=C(O)C(F)(F)F | 1.5 |  |  | 0.3 | 53 | 
24 | COP(=O)(N[C@@H](C(=O)N1CCC[C@H]1C(=O)NCc1ccc(C(=N)N)cc1)C(c1ccccc1)c1ccccc1)OC.O=C(O)C(F)(F)F | 2.9 | 0.044 |  | 4 | 271 | 
25 | N=C(N)c1ccc(CNC(=O)[C@@H]2CCCN2C(=O)[C@H](NS(=O)(=O)O)C(c2ccccc2)c2ccccc2)cc1.O=C(O)C(F)(F)F | 4.4 | 0.1 |  | 0.55 | 35 | 
26 | COC(=O)N[C@@H](C(=O)N1CCC[C@H]1C(=O)NCc1ccc(C(=N)N)cc1)C(c1ccccc1)c1ccccc1.O=C(O)C(F)(F)F | 0.31 | 0.036 |  | 3.9 | 594 | 
27 | CC(=O)N[C@@H](C(=O)N1CCC[C@H]1C(=O)NCc1ccc(C(=N)N)cc1)C(c1ccccc1)c1ccccc1.O=C(O)C(F)(F)F |  | 0.16 |  | 3 | 244 | 
28 | N=C(N)c1ccc(CNC(=O)[C@@H]2CCCN2C(=O)[C@H](N)C(c2ccccc2)c2ccccc2)cc1.O=C(O)C(F)(F)F | 2.5 |  |  | 1.4 | 107 | 
29 | CS(=O)(=O)N[C@H](Cc1ccc(Cl)c(Cl)c1)C(=O)N1CCC[C@H]1C(=O)NCc1ccc(C(=N)N)cc1 | 0.8 | 0.05 |  |  |  | Ki (Coagulation factor X [6]): 120 nM
30 | CS(=O)(=O)N[C@H](CC1CCCCC1)C(=O)N1CCC[C@H]1C(=O)NCc1ccc(C(=N)N)cc1 | 1.3 | 0.02 |  |  |  | Ki (Coagulation factor X [6]): 200 nM

Source: ChEMBL document CHEMBL1135262, “Noncovalent tripeptidic thrombin inhibitors incorporating amidrazone, amine and amidine functions at P1” (Bioorg Med Chem Lett, 2002)
